According to US12303497B2, “Anti-androgens for the treatment of metastatic castration-sensitive prostate cancer” (priority 2019, dated 2025):

Target: CYP3A4 (Homo sapiens, UniProt P08684)
Assay: In vitro CYP inhibition

CYP3A4, sequence (P08684 whole entry): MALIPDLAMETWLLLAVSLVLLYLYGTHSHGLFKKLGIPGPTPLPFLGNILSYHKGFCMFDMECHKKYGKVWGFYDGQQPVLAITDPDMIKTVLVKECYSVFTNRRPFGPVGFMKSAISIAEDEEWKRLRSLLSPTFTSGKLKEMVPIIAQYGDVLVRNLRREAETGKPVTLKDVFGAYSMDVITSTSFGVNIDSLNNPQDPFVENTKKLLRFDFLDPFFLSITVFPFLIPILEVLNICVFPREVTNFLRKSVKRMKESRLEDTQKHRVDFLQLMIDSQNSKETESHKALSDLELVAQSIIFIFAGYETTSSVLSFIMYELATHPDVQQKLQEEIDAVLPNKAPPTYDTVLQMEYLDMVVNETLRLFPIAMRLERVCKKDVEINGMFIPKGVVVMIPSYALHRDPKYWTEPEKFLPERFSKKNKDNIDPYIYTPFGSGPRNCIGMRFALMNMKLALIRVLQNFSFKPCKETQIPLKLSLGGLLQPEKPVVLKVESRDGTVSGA

Q: For `CNC(=O)c1ccc(N2C(=S)N(c3cnc(C#N)c(C(F)(F)F)c3)C(=O)C23CCC3)cc1F` [Apalutamide, 4-[7-(6-cyano-5-trifluoromethylpyridin-3-yl)-8-oxo-6-thioxo-5,7-diazaspiro[3.4]oct-5-yl]-2-fluoro-N-methylbenzamide], which CYP3A4 inhibition is on record?
A: weak inhibitors
